# Experiments:
# Test in all cases: relative viability (nuclei count vs DMSO), 5 days (fraction); higher = more cells survive
# Ibrutinib + Pictilisib = compound: C=CC(=O)N1CCC[C@@H](n2nc(-c3ccc(Oc4ccccc4)cc3)c3c(N)ncnc32)C1 [Ibrutinib] + CS(=O)(=O)N1CCN(Cc2cc3nc(-c4cccc5[nH]ncc45)nc(N4CCOCC4)c3s2)CC1 [Pictilisib] (partner 1 µM)
# Summary of the method: (§1)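 A single step with final 0.05% Triton X-100, 1% formaldehyde and 1 ug/ml Hoechst fixed the cells and stained nuclei 5 days after treatment. Lung cancer cell lines in 1536-well plates had been treated by pin tool the day after seeding with one drug alone or a fixed anchor-drug dose plus five library-drug doses (not always all listed) in √10 steps, and nuclei were counted on 4× images. Relative viability is the ratio of nuclei in treated wells to nuclei in vehicle wells, taken as the median of duplicate plates.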
# BMX-IN-1 + Pictilisib = compound: C=CC(=O)Nc1cc(-n2c(=O)ccc3cnc4ccc(-c5ccc(NS(C)(=O)=O)cc5)cc4c32)ccc1C [BMX-IN-1] + CS(=O)(=O)N1CCN(Cc2cc3nc(-c4cccc5[nH]ncc45)nc(N4CCOCC4)c3s2)CC1 [Pictilisib] (partner 1 µM)
# Summary of the method: as §1
# Ibrutinib + Decitabine = compound: C=CC(=O)N1CCC[C@@H](n2nc(-c3ccc(Oc4ccccc4)cc3)c3c(N)ncnc32)C1 [Ibrutinib] + Nc1ncn([C@H]2C[C@H](O)[C@@H](CO)O2)c(=O)n1 [Decitabine] (partner 2 µM)
# Summary of the method: as §1
# PAC-1 + Pictilisib = compound: C=CCc1cccc(/C=N/NC(=O)CN2CCN(Cc3ccccc3)CC2)c1O [PAC-1] + CS(=O)(=O)N1CCN(Cc2cc3nc(-c4cccc5[nH]ncc45)nc(N4CCOCC4)c3s2)CC1 [Pictilisib] (partner 1 µM)
# Summary of the method: as §1
Cell Line,relative viability (Ibrutinib + Pictilisib; first compound 0.005 µM),relative viability (Ibrutinib + Pictilisib; first compound 0.01581 µM),relative viability (Ibrutinib + Pictilisib; first compound 0.05 µM),relative viability (Ibrutinib + Pictilisib; first compound 0.1581 µM),relative viability (Ibrutinib + Pictilisib; first compound 0.5 µM),relative viability (BMX-IN-1 + Pictilisib; first compound 0.02 µM),relative viability (BMX-IN-1 + Pictilisib; first compound 0.2 µM),relative viability (BMX-IN-1 + Pictilisib; first compound 0.6325 µM),relative viability (BMX-IN-1 + Pictilisib; first compound 2 µM),relative viability (Ibrutinib + Decitabine; first compound 0.005 µM),relative viability (Ibrutinib + Decitabine; first compound 0.05 µM),relative viability (Ibrutinib + Decitabine; first compound 0.1581 µM),relative viability (Ibrutinib + Decitabine; first compound 0.5 µM),relative viability (PAC-1 + Pictilisib; first compound 0.02 µM),relative viability (PAC-1 + Pictilisib; first compound 0.06325 µM),relative viability (PAC-1 + Pictilisib; first compound 0.2 µM),relative viability (PAC-1 + Pictilisib; first compound 2 µM),relative viability (Ibrutinib + Decitabine; first compound 0.01581 µM)
HOP-62,0.379,0.506,0.67,0.626,0.877,0.639,0.761,0.929,0.688,0.242,0.22,0.249,0.231,0.653,0.573,0.689,0.726,–
NCI-H727,0.253,0.471,0.246,0.298,0.343,0.439,0.416,0.403,0.337,0.617,0.806,0.506,0.804,0.338,0.525,0.453,0.283,1.04
ChaGo-K-1,0.356,0.83,0.592,–,0.956,0.66,0.64,0.858,0.614,0.503,0.544,0.524,0.54,0.817,0.818,0.925,0.627,0.484
BEN,0.347,0.535,0.518,0.5,0.536,0.643,0.741,0.513,0.596,0.454,0.687,0.521,0.646,0.557,0.534,0.536,0.51,0.817
NCI-H596,0.43,0.406,0.442,0.392,0.393,0.382,0.379,0.405,0.343,1.12,1.88,0.936,0.942,0.424,0.423,0.341,0.422,1.1
LU99A,0.274,0.34,0.355,0.324,0.336,0.309,0.382,0.39,0.301,0.857,0.947,0.937,0.874,0.32,0.271,0.313,0.322,0.796
NCI-H460,0.331,0.365,0.313,0.19,0.256,0.376,0.511,0.371,0.501,0.541,0.503,0.497,0.551,0.281,0.405,0.355,0.39,0.419
NCI-H1648,–,–,–,–,–,–,–,–,–,0.509,0.518,0.433,0.364,–,–,–,–,0.434
HCC-44,0.593,0.467,0.527,0.599,0.694,0.732,0.687,0.836,0.622,1,1,0.976,0.988,0.455,0.697,0.666,0.648,0.96
NCI-H647,0.28,0.418,0.357,0.323,–,0.498,0.356,0.396,0.471,0.341,0.411,0.244,0.409,0.417,–,0.417,0.331,0.331
Calu-6,0.854,0.843,0.949,1.05,–,1.14,1.21,1.09,0.866,–,–,–,–,0.857,0.82,0.875,0.833,–
201T,0.581,0.704,0.66,0.616,0.598,0.752,0.72,0.71,0.695,0.827,0.881,0.83,0.799,0.561,0.702,0.75,0.672,0.842
CAL-12T,0.232,0.448,0.394,0.355,0.495,0.527,0.425,0.47,0.422,–,–,–,–,0.202,0.44,0.482,0.568,–
HCC-78,0.199,0.202,0.177,0.159,0.172,0.214,0.18,0.242,0.249,–,0.677,0.543,0.702,0.179,0.196,0.236,0.195,0.824
LK-2,–,0.472,0.532,0.494,0.488,0.8,0.696,0.543,0.59,0.19,0.261,0.217,0.251,0.612,0.607,0.642,0.502,0.244
NCI-H522,–,–,–,–,–,–,–,–,–,0.64,0.677,0.626,0.637,–,–,–,–,0.588
NCI-H322M,0.431,0.562,0.597,0.374,0.467,0.558,0.505,0.532,0.583,0.662,0.664,0.634,0.505,0.4,0.513,0.499,0.332,0.637
COR-L 105,0.316,0.418,0.488,0.341,0.325,0.383,0.4,0.481,0.4,0.632,0.431,0.689,0.403,0.397,0.397,0.167,0.411,0.534
LOU-NH91,0.451,0.475,0.512,0.487,0.487,–,0.509,0.546,0.512,0.786,0.762,0.807,0.648,0.494,0.521,0.545,0.514,0.745
PC-3 [JPC-3],0.621,0.685,0.686,0.531,0.528,0.812,0.839,0.756,0.788,0.707,0.707,0.837,0.542,0.736,0.77,0.732,0.787,0.762
NCI-H2228,0.316,0.486,0.276,0.433,0.386,0.578,0.471,0.443,0.432,–,–,–,–,0.42,0.507,0.397,0.362,–

Cell Line,relative viability (Ibrutinib + Pictilisib; first compound 0.005 µM),relative viability (Ibrutinib + Pictilisib; first compound 0.01581 µM),relative viability (Ibrutinib + Pictilisib; first compound 0.05 µM),relative viability (Ibrutinib + Pictilisib; first compound 0.1581 µM),relative viability (Ibrutinib + Pictilisib; first compound 0.5 µM),relative viability (BMX-IN-1 + Pictilisib; first compound 0.02 µM),relative viability (BMX-IN-1 + Pictilisib; first compound 0.2 µM),relative viability (BMX-IN-1 + Pictilisib; first compound 0.6325 µM),relative viability (BMX-IN-1 + Pictilisib; first compound 2 µM),relative viability (Ibrutinib + Decitabine; first compound 0.005 µM),relative viability (Ibrutinib + Decitabine; first compound 0.05 µM),relative viability (Ibrutinib + Decitabine; first compound 0.1581 µM),relative viability (Ibrutinib + Decitabine; first compound 0.5 µM),relative viability (PAC-1 + Pictilisib; first compound 0.02 µM),relative viability (PAC-1 + Pictilisib; first compound 0.06325 µM),relative viability (PAC-1 + Pictilisib; first compound 0.2 µM),relative viability (PAC-1 + Pictilisib; first compound 2 µM),relative viability (Ibrutinib + Decitabine; first compound 0.01581 µM)
NCI-H1650,0.493,0.52,0.506,0.515,0.476,0.776,0.675,0.705,0.548,0.41,0.512,0.402,0.444,0.53,0.608,0.582,0.515,0.379
LCLC-103H,0.72,0.535,0.557,0.517,0.653,0.636,0.612,0.684,0.609,0.685,0.754,0.759,0.725,0.549,0.612,0.592,0.638,0.705
HCC-15,0.646,0.678,0.731,0.361,0.711,0.721,0.818,0.798,0.844,0.711,0.661,0.581,0.662,0.683,0.731,0.743,0.783,0.57
UMC-11,0.31,0.781,0.795,0.777,0.784,1.07,0.922,0.892,0.912,–,0.452,0.596,0.789,0.843,0.783,0.754,0.815,0.588
NCI-H2087,0.686,0.878,0.973,0.339,0.862,0.876,0.662,0.954,1.15,0.238,0.261,–,0.291,0.852,0.901,0.782,0.683,0.279
NCI-H3122,0.563,0.61,0.69,0.375,0.533,0.689,0.632,0.571,0.675,0.52,0.471,0.424,0.431,0.611,0.564,0.645,0.566,0.381
NCI-H661,0.302,0.413,0.308,0.358,0.284,0.349,0.436,0.368,0.316,0.498,0.428,0.471,0.381,0.392,0.351,0.33,0.371,0.489
NCI-H1703,–,0.233,0.205,0.241,0.222,0.248,0.265,0.248,0.225,–,–,–,–,0.245,0.267,0.249,0.205,–
NCI-H2342,–,–,–,–,–,–,–,–,–,0.739,0.693,0.708,0.563,–,–,–,–,0.64
NCI-H838,0.343,0.38,0.514,0.472,0.543,0.535,0.444,0.598,0.472,0.552,0.497,0.476,0.451,0.427,0.526,0.387,0.455,0.466
ABC-1,0.528,0.743,0.716,0.513,0.615,0.802,0.75,0.847,0.394,0.973,–,–,1.19,0.624,0.665,0.545,0.74,0.929
NCI-H441,0.586,0.551,0.619,0.435,0.449,0.461,0.618,0.491,0.606,0.255,0.231,0.211,0.25,0.447,0.583,0.552,0.377,0.241
NCI-H2126,–,0.469,0.454,0.399,0.43,0.473,0.481,0.568,0.51,0.537,0.613,0.598,0.502,0.43,0.478,0.495,0.49,0.565
NCI-H1651,0.502,0.482,0.466,0.627,0.643,0.658,0.754,0.741,0.595,0.426,0.56,0.465,0.53,0.579,0.647,0.59,0.535,0.693
NCI-H1734,0.354,0.446,0.43,0.491,0.388,0.529,0.541,0.488,0.432,0.548,0.541,0.455,0.47,0.446,0.448,0.431,0.468,0.511
SW 900,–,–,–,–,–,–,–,–,–,0.401,0.412,0.432,0.458,–,–,–,–,0.509
NCI-H1299,0.571,0.555,0.773,0.699,0.854,0.838,0.934,0.906,0.563,–,–,–,–,0.876,0.763,0.815,0.657,–
EBC-1,0.31,0.436,0.378,0.456,0.321,0.249,0.303,0.382,0.255,–,–,–,–,0.371,0.345,0.379,0.335,–
IA-LM,0.203,0.231,0.312,0.411,0.22,0.337,0.403,0.427,0.386,–,–,–,–,0.339,0.363,0.355,0.456,–
NCI-H1563,0.663,0.635,0.677,0.607,0.602,0.601,0.629,0.655,0.684,–,–,–,–,0.641,0.695,0.752,0.63,–

# Source: the supplement of paper PMC10307832
